Source: PMC7910904, “Improving the Antioxidant Properties of Calophyllum inophyllum Seed Oil from French Polynesia: Development and Biological Applications of Resinous Ethanol-Soluble Extracts” (Antioxidants, 2021)
In brackets after ≈: the same amount, converted by molar mass.

Legend:
[1] = test system: 3T3 fibroblasts; assay: MTT cytotoxicity on 3T3 fibroblasts; type: cell-based, murine; details: Mus musculus, Fibroblast, 50% viability after 48 h
[2] = test system: Staphylococcus aureus (ATCC 6538); assay: Antimicrobial disk-diffusion agar method; type: cell-based; details: for Antimicrobial activity against S. aureus, in words: 20 µg per disc; for zone of inhibition at 20 µg/disc: Staphylococcus aureus, ATCC6538, 20 µg/disk, 24 h, read-out: S. aureus Diameter of the zone of inhibition
[3] = DPPH assay; details: for IC50: metabolites and standards, in dichloromethane
Experimental: Experiments were performed according to previous procedures. Aliquots of dichloromethane solutions of oil or fractions (50–500 mg/mL) or test compounds (final concentration 0.01–2 mM) were added to 200 µL of a freshly prepared DPPH solution (75 mg/L), and the final volume was adjusted to 300 µL with dichloromethane to obtain a final DPPH concentration of 0.13 mM. The absorbance was read at 517 nm on a microplate reader 3 min after sample addition. Experiments were performed in triplicate and averaged. The DPPH inhibition was calculated as follows:Inhibition (%) = [100 × (A0 − A)/A0](1)

[4] = test system: A549 human lung carcinoma cells; assay: MTT cytotoxicity on A549 cells; type: cell-based; details: 50% viability after 48 h
[5] = test system: M. tuberculosis H37 RV; assay: Anti-mycobacterial Microplate-based Alamar Blue assay (MABA); type: cell-based; details: Mycobacterium tuberculosis, H37RV
[6] = Total peroxyl radical-trapping potential (TRAP) assay; details: for TRAP TE: metabolites and standards: activity of a 1 µM-solution relative to 1 µM Trolox
Experimental: The experimental protocol of the TRAP assay was previously reported. Briefly, AAPH (150 mM) was dissolved in 10 mL of Tris HCl buffer solution (100 mM, pH 7.4), and the solution was kept at 37 °C for 30 min to initiate thermal radical formation. A luminol stock solution (1 mM) was prepared in 50 mL Tris HCl buffer and kept in darkness at 4 °C. A 78 µM, working luminol solution was prepared before each assay by dilution in Tris HCl buffer. Samples for assays were prepared as follows: 2 mL of AAPH (final concentration, 100 mM) and 500 μL of luminol solution (final concentration, 13 µM) were introduced in a 3 mL tube; then, 500 μL of pure acetone (blank) or solution of the tested oil or extract in acetone (0.005–0.2 mg/mL) or DMSO (test compounds: 5–300 µM) were added and the mixture vortexed for 5 s before luminescence analysis. A calibration curve was obtained in the same conditions using the antioxidant Trolox (1–40 μM) as a standard.
Quantification of radical scavenging capacity was performed by integrating the area under the curve (AUC) for the sample and blank solutions, and the results are expressed as Trolox Equivalents (TE) using Equation (2):TE = ([Trolox] × ΔAUC Sample)/([Sample] × ΔAUC Trolox)(2) where ΔAUC Sample (Trolox) = AUC Blank − AUC Sample (Trolox).

[7] = biological target: T1, xanthine oxidase (XO; from buttermilk) (Bos taurus, UniProt P80457); assay: biochemical; details: 30 min, 37 °C; read-out: XO Inhibition IC50 (converted)
T1 construct: purchased Sigma-Aldrich; host or cells: buttermilk (natural source)
Experimental: All reactants were dissolved in PBS (0.2 M, pH 7.5). The experiments were performed at 37 °C in 96-wells microplates with a final volume of 250 µL/well [30]. […] To all wells, 25 µL of EDTA (0.1 mM in PBS) and 25 µL of xanthine solution (500 µM) were then added, and the reaction was started by adding 50 µL of XO suspension (23.32 mU/mL), while PBS (50 µL) was added in blank samples. The final concentrations were: xanthine, 50 µM; EDTA, 10 µM and XO, 4.7 mU/mL. The wells were incubated for 30 min at 37 °C, and uric acid production was determined by subtracting the absorbance at 290–295 nm of the sample against that of the blank. Each measurement was performed in triplicate.

[8] = Metal chelating capacity (ferrozine); details: EDTA equivalents per gram of extract
[9] = biological target: T2, Lipoxygenase (15-LOX, soybean) (Glycine max, UniProt P08170); assay: Lipoxygenase inhibitory activity (Cayman kit); type: biochemical; details: compounds at 100 µg/mL
T2 sequence (P08170 1-839): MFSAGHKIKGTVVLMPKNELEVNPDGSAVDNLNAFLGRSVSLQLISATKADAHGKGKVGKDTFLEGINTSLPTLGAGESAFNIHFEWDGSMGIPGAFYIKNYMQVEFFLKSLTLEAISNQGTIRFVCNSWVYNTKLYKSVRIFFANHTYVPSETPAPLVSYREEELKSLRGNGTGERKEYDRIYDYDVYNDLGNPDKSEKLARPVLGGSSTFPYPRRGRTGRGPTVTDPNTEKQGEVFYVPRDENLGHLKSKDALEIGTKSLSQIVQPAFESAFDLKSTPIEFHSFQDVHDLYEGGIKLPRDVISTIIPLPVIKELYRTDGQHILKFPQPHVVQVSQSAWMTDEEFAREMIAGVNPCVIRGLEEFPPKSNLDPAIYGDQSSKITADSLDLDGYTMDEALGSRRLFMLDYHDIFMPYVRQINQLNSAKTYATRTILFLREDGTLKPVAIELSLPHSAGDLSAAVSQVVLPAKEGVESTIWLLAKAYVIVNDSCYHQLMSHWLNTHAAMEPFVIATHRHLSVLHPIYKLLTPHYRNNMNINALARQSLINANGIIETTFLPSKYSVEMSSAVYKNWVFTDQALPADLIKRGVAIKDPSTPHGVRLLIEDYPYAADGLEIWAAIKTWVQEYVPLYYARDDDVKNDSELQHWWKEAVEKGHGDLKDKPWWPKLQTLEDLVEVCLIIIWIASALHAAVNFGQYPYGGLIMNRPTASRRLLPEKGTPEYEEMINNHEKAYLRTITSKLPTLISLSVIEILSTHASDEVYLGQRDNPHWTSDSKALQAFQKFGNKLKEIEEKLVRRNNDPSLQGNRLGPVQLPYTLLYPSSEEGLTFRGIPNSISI
Experimental: Lipoxygenase (15-LOX, soybean) inhibitory activity was evaluated using a commercial assay kit (Cayman Chemicals Co; Item No. 760700) according to the manufacturer’s instructions. Solutions of test samples (10 μL) in methanol were added into 96-wells plates together with assay buffer, and the enzyme was added. The reaction was initiated by adding 10 μL of arachidonic acid to the wells and the plate was placed on a shaker for 15 min. Chromogen solution (100 μL) was added to the wells, the plate was then placed on a shaker for 10 min and absorbance was read at 495–500 nm. […] Results are expressed as a percentage relative to the activity without the test compound.

[10] = Superoxide radical quenching (allopurinol-XO generator, lucigenin luminescence); details: glycine buffer/acetone
Experimental: All reactants were dissolved in glycine buffer, and the reaction was carried out at 25 °C [30]. […] The test tube was inserted in the luminometer, and reaction was initiated by adding a XO suspension (2 µL, 11 mU/mL). Luminescence was monitored for a total period of 7 min and O2^•− quenching was calculated by subtracting areas under the curve against blank. Each measurement was performed in triplicate.

T1 sequence (P80457 whole entry): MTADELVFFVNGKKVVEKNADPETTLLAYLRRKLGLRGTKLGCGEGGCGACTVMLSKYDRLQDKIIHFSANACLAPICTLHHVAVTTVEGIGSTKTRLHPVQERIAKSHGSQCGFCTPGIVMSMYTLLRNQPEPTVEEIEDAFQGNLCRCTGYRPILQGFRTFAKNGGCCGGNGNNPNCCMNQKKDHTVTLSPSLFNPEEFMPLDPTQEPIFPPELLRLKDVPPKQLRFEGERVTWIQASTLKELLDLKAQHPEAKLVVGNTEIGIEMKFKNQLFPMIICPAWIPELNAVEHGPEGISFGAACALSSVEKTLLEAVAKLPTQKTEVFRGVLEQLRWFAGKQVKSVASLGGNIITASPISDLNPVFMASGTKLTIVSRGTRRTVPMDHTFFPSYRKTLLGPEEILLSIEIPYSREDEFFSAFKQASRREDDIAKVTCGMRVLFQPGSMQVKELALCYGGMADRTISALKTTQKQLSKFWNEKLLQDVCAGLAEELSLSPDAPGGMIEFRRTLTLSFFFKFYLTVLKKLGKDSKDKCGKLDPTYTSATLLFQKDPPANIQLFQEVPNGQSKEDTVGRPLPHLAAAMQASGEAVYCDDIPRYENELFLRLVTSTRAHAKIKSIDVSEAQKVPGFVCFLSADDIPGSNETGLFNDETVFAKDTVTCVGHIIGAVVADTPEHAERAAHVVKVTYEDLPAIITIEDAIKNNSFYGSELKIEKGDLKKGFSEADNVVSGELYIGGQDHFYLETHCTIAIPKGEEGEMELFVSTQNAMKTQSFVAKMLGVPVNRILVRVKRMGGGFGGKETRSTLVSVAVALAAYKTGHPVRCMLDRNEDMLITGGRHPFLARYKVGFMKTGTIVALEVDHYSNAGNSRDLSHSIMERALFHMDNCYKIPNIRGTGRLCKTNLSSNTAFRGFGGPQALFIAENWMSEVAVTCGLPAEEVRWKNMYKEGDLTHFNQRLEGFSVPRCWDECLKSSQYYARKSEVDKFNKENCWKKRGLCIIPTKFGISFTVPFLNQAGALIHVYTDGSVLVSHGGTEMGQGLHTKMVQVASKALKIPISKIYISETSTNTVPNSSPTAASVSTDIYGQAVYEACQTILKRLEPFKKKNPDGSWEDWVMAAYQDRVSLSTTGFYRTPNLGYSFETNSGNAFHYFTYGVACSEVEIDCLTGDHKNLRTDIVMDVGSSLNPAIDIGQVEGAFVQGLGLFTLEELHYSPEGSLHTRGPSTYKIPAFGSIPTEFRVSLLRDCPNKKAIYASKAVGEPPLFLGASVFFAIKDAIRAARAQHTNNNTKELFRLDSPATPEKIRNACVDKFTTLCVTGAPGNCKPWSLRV

SMILES | IC50 [1] | zone of inhibition at 20 µg/disc [2] | DPPH scavenging capacity, in words [3] | IC50 [3] | IC50 [4] | MIC [5] | TRAP TE [6] | TRAP activity, in words [6] | also measured
CCCc1cc(=O)oc2c3c(c4c(c12)OC(C)(C)C=C4)O[C@H](C)[C@@H](C)C3=O [12-Oxocalanolide A] | 36 ± 8 µg/mL (≈ 97.7 µM) | 18 ± 2 mm | inactive | > 1000 µM | 1.9 ± 0.1 µg/mL (≈ 5.16 µM) | > 15 µg/mL | – | – | Antimicrobial activity against S. aureus, in words [2]: significant activity
COc1ccc(O)c(C(C)(C)C)c1 [BHA, reference compound] | – | – | – | 94.9 ± 6.1 µM | – | – | 3.46 ± 0.20 TE | – | –
O=C(O)/C=C/c1ccc(O)c(O)c1 [Caffeic acid] | – | – | – | 18.1 ± 0.21 µM | – | – | 2.98 ± 0.14 TE | – | IC50 [7]: 219 µM; MCC [8]: 125± 5 µmol EDTAE/g; inhibition at 100 µg/mL [9]: 45 ± 1%; O2•− Quenching IC50 [10]: 0.013 ± 0.06 µg/mL
CCCc1cc(=O)oc2c3c(c4c(c12)OC(C)(C)C=C4)O[C@H](C)[C@@H](C)[C@@H]3O [Calanolide A] | 52 ± 8 µg/mL (≈ 140 µM) | 14 ± 1 mm | slightly active | ~950 µM | 8.2 ± 1.7 µg/mL (≈ 22.1 µM) | 4.1 ± 0.3 µg/mL (≈ 11.1 µM) | 0.40 ± 0.02 TE | – | –
CCCc1cc(=O)oc2c3c(c4c(c12)OC(C)(C)C=C4)O[C@H](C)[C@H](C)C3=O [Calanolide D] | – | – | inactive | > 1000 µM | – | – | – | – | –
C/C=C(\C)C(=O)c1c(OC)c2c(c3c(CCC)cc(=O)oc13)OC(C)(C)C=C2 [Calanolide GUT 70] | – | – | slightly active | ~900 µM | – | – | 0.30 ± 0.03 TE | weakly active | –
C/C=C(\C)C(=O)c1c(OC)c2c(c3c(-c4ccccc4)cc(=O)oc13)OC(C)(C)C=C2 [Calophyllolide] | 49 ± 4 µg/mL (≈ 118 µM) | 19 ± 3 mm | slightly active | ~890 µM | 3.1 ± 0.9 µg/mL (≈ 7.44 µM) | > 15 µg/mL | 0.48 ± 0.08 TE | weakly active | Antimicrobial activity against S. aureus, in words [2]: significant activity
O=C(O)c1cc(O)c(O)c(O)c1 [Gallic acid] | – | – | – | – | – | – | – | – | IC50 [7]: 242 µM; MCC [8]: 90 ± 3 µmol EDTAE/g; inhibition at 100 µg/mL [9]: 28 ± 2%; O2•− Quenching IC50 [10]: 0.022 ± 0.01 µg/mL
C=C(C)C(CC=C(C)C)CC1(CC=C(C)C)C(=O)C(C(CCC)CC(=O)O)=C(O)C2=C1O[C@H](C)[C@@H](C)C2=O (stereo partly shown) [Inocalophyllin B] | 41 ± 5 µg/mL (≈ 77.8 µM) | 20 ± 2 mm | moderately active | 583 ± 17 µM | 4.2 ± 1.3 µg/mL (≈ 7.97 µM) | > 15 µg/mL | 1.07 ± 0.06 TE | significant TRAP activity | Antimicrobial activity against S. aureus, in words [2]: active
C[C@H]1Oc2c3c(c4c(-c5ccccc5)cc(=O)oc4c2C(=O)[C@@H]1C)OC(C)(C)C=C3 [Inophyllum C] | – | – | moderately active | 701 ± 9 µM | – | – | 0.21 ± 0.04 TE | weakly active | –
C[C@@H]1C(=O)c2c(c3c(c4c(-c5ccccc5)cc(=O)oc24)OC(C)(C)C=C3)O[C@@H]1C [Inophyllum E] | 120 ± 9 µg/mL (≈ 298 µM) | 14 ± 2 mm | moderately active | 481 ± 7 µM | 44.8 ± 2.2 µg/mL (≈ 111 µM) | > 15 µg/mL | 0.91 ± 0.04 TE | weakly active | –
C[C@@H]1[C@@H](C)Oc2c3c(c4c(-c5ccccc5)cc(=O)oc4c2[C@@H]1O)OC(C)(C)C=C3 [Inophyllum P] | 92 ± 4 µg/mL (≈ 227 µM) | 17 ± 1 mm | strongly active | 26.2 ± 3.1 µM | 11.3 ± 0.6 µg/mL (≈ 27.9 µM) | 5.7 ± 0.3 µg/mL (≈ 14.1 µM) | 4.11 ± 0.10 TE | strong antioxidant activity | Antimicrobial activity against S. aureus, in words [2]: significant activity; TRAP efficiency relative to Trolox [6]: about four times more efficient than Trolox; DPPH: times more active than inophyllums E and C [3]: 20–30 times
Cc1onc(-c2ccccc2)c1C(=O)N[C@@H]1C(=O)N2[C@@H]1SC(C)(C)[C@@H]2C(=O)O [Oxacillin, reference compound] | – | 30 ± 1 mm | – | – | – | – | – | – | –
O=c1c(O)c(-c2ccc(O)c(O)c2)oc2cc(O)cc(O)c12 [Quercetin] | – | – | – | 14.1 ± 0.21 µM | – | – | 6.31 ± 0.24 TE | – | MCC [8]: 105 ± 3 µmol EDTAE/g; inhibition at 100 µg/mL [9]: 83 ± 2%; O2•− Quenching IC50 [10]: 0.083 ± 0.06 µg/mL
Oc1ccc2c(c1)OCO2 [Sesamol, reference compound] | – | – | – | 66.9 ± 3.1 µM | – | – | 1.34 ± 0.09 TE | – | –
[H]/N=C(/N)N[C@H]1[C@H](O)[C@@H](O)[C@H](O[C@@H]2O[C@@H](C)[C@](O)(C=O)[C@H]2O[C@@H]2O[C@@H](CO)[C@H](O)[C@@H](O)[C@@H]2NC)[C@@H](N/C(N)=N\[H])[C@@H]1O [Streptomycin, reference compound] | – | – | – | – | – | 0.4 ± 0.1 µg/mL (≈ 0.688 µM) | – | – | –
CCC(C)c1cc(=O)oc2c3c(c4c(c12)OC(C)(C)C=C4)OC(C)C(C)C3O (stereo not shown) [Tamanolide D] | 46 ± 5 µg/mL (≈ 120 µM) | 12 ± 2 mm | moderately active | 779 ± 7 µM | 9.3 ± 1.2 µg/mL (≈ 24.2 µM) | 5.1 ± 0.3 µg/mL (≈ 13.3 µM) | 1.36 ± 0.20 TE | – | –
Cc1c(C)c2c(c(C)c1O)CCC(C)(C(=O)O)O2 (stereo not shown) [Trolox, 6-hydroxy-2,5,7,8-tetramethylchroman-2-carboxylic acid, reference compound] | – | – | – | 21.2 ± 0.8 µM | – | – | 1 TE | – | –
